Experimental data taken from patent US20050197350A1, “Novel quinoline, tetrahydroquinazoline, and pyrimidine derivatives and methods of treatment related to the use thereof” (TAISHO PHARMACEUTICAL CO., LTD., priority 2003, published 2005).

The molecules below were run on MCH receptors (assay: MCH receptor activity class (method not given)). Conditions: class by percent of control at 10^-7 M or IC50.

Question: For `CN(C)c1nc(N[C@H]2CC[C@@H](CNC(=O)c3ccccc3SC(F)F)CC2)nc2c1CCCC2` [compound 644], which class is on record?
Answer: 3 (Class 3 The value of percent of control at 10^−7 M was more than 60% or the value of IC50 was more than 200 nM.)

Question: How did the class turn out when `CN(C)c1nc(N[C@H]2CC[C@@H](CNC(=O)c3cc(Cl)sc3Cl)CC2)nc2c1CCCC2` [compound 645] was run?
Answer: 3 (Class 3 The value of percent of control at 10^−7 M was more than 60% or the value of IC50 was more than 200 nM.)

Question: `CCCSc1ncccc1C(=O)NC[C@H]1CC[C@@H](Nc2nc3c(c(N(C)C)n2)CCCC3)CC1` [compound 646] was tested. Which class did it give?
Answer: 1 (Class 1: The value of percent of control at 10^−7 M was less than 40% or the value of IC50 was less than 50 nM.)

Question: `CN(C)c1nc(N[C@H]2CC[C@@H](CNC(=O)c3cc(C(C)(C)C)nn3Cc3ccccc3)CC2)nc2c1CCCC2` [compound 647] was tested. Which class did it give?
Answer: 3 (Class 3 The value of percent of control at 10^−7 M was more than 60% or the value of IC50 was more than 200 nM.)

Question: Which class does the source give for `CN(C)c1nc(N[C@H]2CC[C@@H](CNC(=O)c3cc(C(C)(C)C)nn3C)CC2)nc2c1CCCC2` [compound 648] here?
Answer: 3 (Class 3 The value of percent of control at 10^−7 M was more than 60% or the value of IC50 was more than 200 nM.)

Question: For `C/C(=C\c1ccccc1)C(=O)NC[C@H]1CC[C@@H](Nc2nc3c(c(N(C)C)n2)CCCC3)CC1` [compound 649], which class is on record?
Answer: 3 (Class 3 The value of percent of control at 10^−7 M was more than 60% or the value of IC50 was more than 200 nM.)

Question: With `CN(C)c1nc(N[C@H]2CC[C@@H](CNC(=O)c3cncc(Br)c3)CC2)nc2c1CCCC2` [compound 650] as the molecule, how does the class read?
Answer: 3 (Class 3 The value of percent of control at 10^−7 M was more than 60% or the value of IC50 was more than 200 nM.)

Question: Which class does the source give for `CN(C)c1nc(N[C@H]2CC[C@@H](CNC(=O)Cc3cccc4ccccc34)CC2)nc2c1CCCC2` [compound 651] here?
Answer: 3 (Class 3 The value of percent of control at 10^−7 M was more than 60% or the value of IC50 was more than 200 nM.)

Question: `Cc1cc(C(=O)NC[C@H]2CC[C@@H](Nc3nc4c(c(N(C)C)n3)CCCC4)CC2)nn1C(C)(C)C` [compound 652] was tested. Which class did it give?
Answer: 3 (Class 3 The value of percent of control at 10^−7 M was more than 60% or the value of IC50 was more than 200 nM.)

Question: How did the class turn out when `CN(C)c1nc(N[C@H]2CC[C@@H](CNC(=O)c3csc4ccccc34)CC2)nc2c1CCCC2` [compound 653] was run?
Answer: 3 (Class 3 The value of percent of control at 10^−7 M was more than 60% or the value of IC50 was more than 200 nM.)

Question: With `CN(C)c1nc(N[C@H]2CC[C@@H](CNC(=O)c3ccc(-c4ccccc4)cc3)CC2)nc2c1CCCC2` [compound 654] as the molecule, how does the class read?
Answer: 3 (Class 3 The value of percent of control at 10^−7 M was more than 60% or the value of IC50 was more than 200 nM.)

Question: For `CN(C)c1nc(N[C@H]2CC[C@@H](CNC(=O)c3ccccc3Br)CC2)nc2c1CCCC2` [compound 655], which class is on record?
Answer: 3 (Class 3 The value of percent of control at 10^−7 M was more than 60% or the value of IC50 was more than 200 nM.)

Question: Which class does the source give for `CN(C)c1nc(N[C@H]2CC[C@@H](CNC(=O)c3c(Cl)cccc3Cl)CC2)nc2c1CCCC2` [compound 656, 2,6-dichloro-N-[(cis-4-{[4-(dimethylamino)-5,6,7,8-tetrahydroquinazolin-2-yl]amino}cyclohexyl)methyl]benzamide] here?
Answer: 2 (Class 2: The value of percent of control at 10^−7 M was from 40% to 60% or the value of IC′50 was from 50 nM to 200 nM.)

Question: `CN(C)c1nc(N[C@H]2CC[C@@H](CNC(=O)c3ccccc3I)CC2)nc2c1CCCC2` [compound 657] was tested. Which class did it give?
Answer: 3 (Class 3 The value of percent of control at 10^−7 M was more than 60% or the value of IC50 was more than 200 nM.)

Question: How did the class turn out when `Cc1ccccc1C(=O)NC[C@H]1CC[C@@H](Nc2nc3c(c(N(C)C)n2)CCCC3)CC1` [compound 658] was run?
Answer: 3 (Class 3 The value of percent of control at 10^−7 M was more than 60% or the value of IC50 was more than 200 nM.)

Question: `CN(C)c1nc(N[C@H]2CC[C@@H](CNC(=O)c3cccc(Cl)c3Cl)CC2)nc2c1CCCC2` [compound 659] was tested. Which class did it give?
Answer: 3 (Class 3 The value of percent of control at 10^−7 M was more than 60% or the value of IC50 was more than 200 nM.)

Question: `CN(C)c1nc(N[C@H]2CC[C@@H](CNC(=O)c3cc(F)ccc3Cl)CC2)nc2c1CCCC2` [compound 660] was tested. Which class did it give?
Answer: 3 (Class 3 The value of percent of control at 10^−7 M was more than 60% or the value of IC50 was more than 200 nM.)

Question: With `CN(C)c1nc(N[C@H]2CC[C@@H](CNC(=O)c3cccc4c3-c3ccccc3C4=O)CC2)nc2c1CCCC2` [compound 661] as the molecule, how does the class read?
Answer: 3 (Class 3 The value of percent of control at 10^−7 M was more than 60% or the value of IC50 was more than 200 nM.)

Question: For `CN(C)c1nc(N[C@H]2CC[C@@H](CNC(=O)c3c(F)ccc(F)c3F)CC2)nc2c1CCCC2` [compound 662], which class is on record?
Answer: 3 (Class 3 The value of percent of control at 10^−7 M was more than 60% or the value of IC50 was more than 200 nM.)

Question: `CN(C)c1nc(N[C@H]2CC[C@@H](CNC(=O)c3cccc(F)c3F)CC2)nc2c1CCCC2` [compound 663] was tested. Which class did it give?
Answer: 3 (Class 3 The value of percent of control at 10^−7 M was more than 60% or the value of IC50 was more than 200 nM.)

Question: With `CN(C)c1nc(N[C@H]2CC[C@@H](CNC(=O)c3c(F)cccc3F)CC2)nc2c1CCCC2` [compound 664] as the molecule, how does the class read?
Answer: 3 (Class 3 The value of percent of control at 10^−7 M was more than 60% or the value of IC50 was more than 200 nM.)

Question: For `CN(C)c1nc(N[C@H]2CC[C@@H](CNC(=O)c3c(F)cccc3C(F)(F)F)CC2)nc2c1CCCC2` [compound 665], which class is on record?
Answer: 3 (Class 3 The value of percent of control at 10^−7 M was more than 60% or the value of IC50 was more than 200 nM.)

Question: How did the class turn out when `Cc1cc(C)c(C(=O)NC[C@H]2CC[C@@H](Nc3nc4c(c(N(C)C)n3)CCCC4)CC2)c(C)c1` [compound 666] was run?
Answer: 2 (Class 2: The value of percent of control at 10^−7 M was from 40% to 60% or the value of IC′50 was from 50 nM to 200 nM.)

Question: Which class does the source give for `CN(C)c1nc(N[C@H]2CC[C@@H](CNC(=O)c3c(F)cccc3Cl)CC2)nc2c1CCCC2` [compound 667] here?
Answer: 2 (Class 2: The value of percent of control at 10^−7 M was from 40% to 60% or the value of IC′50 was from 50 nM to 200 nM.)

Question: With `CN(C)c1nc(N[C@H]2CC[C@@H](CNC(=O)c3c(Cl)cc(Cl)cc3Cl)CC2)nc2c1CCCC2` [compound 668, 2,4,6-trichloro-N-[(cis-4-{[4-(dimethylamino)-5,6,7,8-tetrahydroquinazolin-2-yl]amino}cyclohexyl)methyl]benzamide] as the molecule, how does the class read?
Answer: 1 (Class 1: The value of percent of control at 10^−7 M was less than 40% or the value of IC50 was less than 50 nM.)

Question: For `CN(C)c1nc(N[C@H]2CC[C@@H](CNC(=O)/C=C/c3ccccc3Cl)CC2)nc2c1CCCC2` [compound 669], which class is on record?
Answer: 3 (Class 3 The value of percent of control at 10^−7 M was more than 60% or the value of IC50 was more than 200 nM.)

Question: `Cc1ccc(Cl)c(C(=O)NC[C@H]2CC[C@@H](Nc3nc4c(c(N(C)C)n3)CCCC4)CC2)c1F` [compound 670] was tested. Which class did it give?
Answer: 3 (Class 3 The value of percent of control at 10^−7 M was more than 60% or the value of IC50 was more than 200 nM.)

Question: Which class does the source give for `CN(C)c1nc(N[C@H]2CC[C@@H](CNC(=O)c3c(F)ccc(F)c3Cl)CC2)nc2c1CCCC2` [compound 671] here?
Answer: 3 (Class 3 The value of percent of control at 10^−7 M was more than 60% or the value of IC50 was more than 200 nM.)

Question: Which class does the source give for `Cc1cccc(C(=O)NC[C@H]2CC[C@@H](Nc3nc4c(c(N(C)C)n3)CCCC4)CC2)c1C` [compound 672] here?
Answer: 3 (Class 3 The value of percent of control at 10^−7 M was more than 60% or the value of IC50 was more than 200 nM.)
